In US4265885A, “Anthracyclines containing branched-chain amino-deoxy sugars” (Farmitalia Carlo Erba S.p.A., priority 1978, dated 1981):
≈ marks a conversion by molar mass, not a printed value. Like-named read-outs stand apart in the source and are kept apart here.

What was measured:
[1] = Toxic deaths in mice treated in the P 388 leukemia test; type: in vivo; settings: as hydrochloride
Experimental: (§1) The new anthracycline glycosides described in the invention, display antitumor activity. The compounds have been tested against HeLa cells "in vitro" (time of exposure to the drugs: 24 hours) and on P 388 leukemia in mice in comparison with daunorubicin and doxorubicin. The results of the "in vitro" tests, shown in Table I are reported as ID50 (Inhibiting Dose 50% in ng/ml).
(§2) The antitumor activity was tested "in vivo" on P 388 leukemia in comparison with daunorubicin and doxorubicin.
(§3) ^(a) Mice were treated i.p. on day 1 after tumor cell inoculation.

P 388 leukemia = experiment: Activity against P 388 leukemia in mice (survival); type: in vivo; settings: as hydrochloride
Experimental: as §1, §2, §3
^(b) Median survival time of treated mice, over median survival time

HeLa cells = experiment: Activity on HeLa cells viability in vitro; type: cell-based; settings: Homo sapiens, read-out: ID50 (Inhibiting Dose 50%)
[2] = dose 4.4 mg/kg i.p. on day 1 after tumor cell inoculation
[3] = dose 6.6 mg/kg i.p. on day 1 after tumor cell inoculation
[4] = dose 10.0 mg/kg i.p. on day 1 after tumor cell inoculation
[5] = HeLa cells viability in vitro, time of exposure to the drugs: 24 hours, compounds as hydrochloride
[6] = dose 22.5 mg/kg i.p. on day 1 after tumor cell inoculation
[7] = dose 33.7 mg/kg i.p. on day 1 after tumor cell inoculation
[8] = dose 50.5 mg/kg i.p. on day 1 after tumor cell inoculation
[9] = dose 2.9 mg/kg i.p. on day 1 after tumor cell inoculation

SMILES: COc1cccc2c1C(=O)c1c(O)c3c(c(O)c1C2=O)C[C@@](O)(C(=O)CO)C[C@@H]3O[C@H]1C[C@H](N)[C@](C)(OC)[C@H](C)O1 [4'-C-Methyl-4'-O-methyl-adriamycin]
- No. of toxic deaths/total [1, 2]: 0/10
- No. of toxic deaths/total [1, 3]: 0/10
- No. of toxic deaths/total [1, 4]: 2/17
- T/C (median survival time of treated mice over median survival time of control × 100) (P 388 leukemia; [2]): 165%
- T/C (median survival time of treated mice over median survival time of control × 100) (P 388 leukemia; [3]): 172%
- T/C (median survival time of treated mice over median survival time of control × 100) (P 388 leukemia; [4]): 202%
- IC50 (HeLa cells; [5]): 0.005 µg/mL (≈ 0.00875 µM)

SMILES: COc1cccc2c1C(=O)c1c(O)c3c(c(O)c1C2=O)C[C@@](O)(C(C)=O)C[C@@H]3O[C@H]1C[C@H](N)[C@](C)(OC)[C@H](C)O1 [4'-C-methyl-4'-O-methyl-daunorubicin (V), 4'-C-Methyl-4'-O-methyl-daunomycin]
- No. of toxic deaths/total [1, 3]: 0/18
- No. of toxic deaths/total [1, 6]: 0/20
- No. of toxic deaths/total [1, 7]: 0/26
- No. of toxic deaths/total [1, 8]: 1/5
- T/C (median survival time of treated mice over median survival time of control × 100) (P 388 leukemia; [3]): 140%
- T/C (median survival time of treated mice over median survival time of control × 100) (P 388 leukemia; [6]): 155%
- T/C (median survival time of treated mice over median survival time of control × 100) (P 388 leukemia; [7]): 150%
- T/C (median survival time of treated mice over median survival time of control × 100) (P 388 leukemia; [8]): 137%
- IC50 (HeLa cells; [5]): 0.034 µg/mL (≈ 0.0612 µM)

SMILES: COc1cccc2c1C(=O)c1c(O)c3c(c(O)c1C2=O)C[C@@](O)(C(=O)CO)C[C@@H]3O[C@H]1C[C@H](N)[C@@](C)(OC)[C@H](C)O1 [4'-Epi-4'-C-methyl-4'-O-methyl-adriamycin]
- No. of toxic deaths/total [1, 2]: 0/8
- No. of toxic deaths/total [1, 3]: 0/8
- No. of toxic deaths/total [1, 4]: 0/8
- T/C (median survival time of treated mice over median survival time of control × 100) (P 388 leukemia; [2]): 165%
- T/C (median survival time of treated mice over median survival time of control × 100) (P 388 leukemia; [3]): 185%
- T/C (median survival time of treated mice over median survival time of control × 100) (P 388 leukemia; [4]): 205%
- IC50 (HeLa cells; [5]): 0.027 µg/mL (≈ 0.0472 µM)

SMILES: COc1cccc2c1C(=O)c1c(O)c3c(c(O)c1C2=O)C[C@@](O)(C(C)=O)C[C@@H]3O[C@H]1C[C@H](N)[C@@](C)(OC)[C@H](C)O1 [4'-Epi-4'-C-methyl-4'-O-methyl-daunomycin]
- No. of toxic deaths/total [1, 3]: 0/8
- No. of toxic deaths/total [1, 4]: 0/8
- No. of toxic deaths/total [1, 6]: 0/8
- T/C (median survival time of treated mice over median survival time of control × 100) (P 388 leukemia; [3]): 140%
- T/C (median survival time of treated mice over median survival time of control × 100) (P 388 leukemia; [4]): 147%
- T/C (median survival time of treated mice over median survival time of control × 100) (P 388 leukemia; [6]): 150%
- IC50 (HeLa cells; [5]): 0.0025 to 0.0034 µg/mL (≈ 0.0045 to 0.00612 µM)

SMILES: COc1cccc2c1C(=O)c1c(O)c3c(c(O)c1C2=O)C[C@@](O)(C(C)=O)C[C@@H]3O[C@H]1C[C@H](N)[C@H](O)[C@H](C)O1 [Daunorubicin, reference compound]
- No. of toxic deaths/total [1, 9]: 0/48
- No. of toxic deaths/total [1, 2]: 3/48
- No. of toxic deaths/total [1, 3]: 28/48
- T/C (median survival time of treated mice over median survival time of control × 100) (P 388 leukemia; [9]): 163%
- T/C (median survival time of treated mice over median survival time of control × 100) (P 388 leukemia; [2]): 161%
- T/C (median survival time of treated mice over median survival time of control × 100) (P 388 leukemia; [3]): 156%
- IC50 (HeLa cells; HeLa, 24 h): 0.01 µg/mL (≈ 0.019 µM)

SMILES: COc1cccc2c1C(=O)c1c(O)c3c(c(O)c1C2=O)C[C@@](O)(C(=O)CO)C[C@@H]3O[C@H]1C[C@H](N)[C@H](O)[C@H](C)O1 [Doxorubicin, reference compound]
- No. of toxic deaths/total [1, 2]: 0/28
- No. of toxic deaths/total [1, 3]: 0/28
- No. of toxic deaths/total [1, 4]: 5/28
- T/C (median survival time of treated mice over median survival time of control × 100) (P 388 leukemia; [2]): 190%
- T/C (median survival time of treated mice over median survival time of control × 100) (P 388 leukemia; [3]): 201%
- T/C (median survival time of treated mice over median survival time of control × 100) (P 388 leukemia; [4]): 241%
- IC50 (HeLa cells; HeLa, 24 h): 0.01 µg/mL (≈ 0.0184 µM)
